According to patent US11970494B2, “6-heteroaryloxy benzimidazoles and azabenzimidazoles as JAK2 inhibitors” (Ajax Therapeutics, Inc., priority 2021, dated 2024):

What was measured:
[1] = target: T1, JAK2 (JH1 domain-catalytic, Y1007F,Y1008F) kinase (Homo sapiens, UniProt O60674, Y1007F/Y1008F); experiment: JAK2 Binding Assay (JAK2 JH1 Domain Binding Assay); conditions: JAK2 JH1 domain binding, qPCR detection; read-out: JAK2 Kd
T1 construct: made in house; host or cells: transiently transfected HEK293 cells
T1 sequence (O60674 849-1124 Y1007F/Y1008F limits assumed): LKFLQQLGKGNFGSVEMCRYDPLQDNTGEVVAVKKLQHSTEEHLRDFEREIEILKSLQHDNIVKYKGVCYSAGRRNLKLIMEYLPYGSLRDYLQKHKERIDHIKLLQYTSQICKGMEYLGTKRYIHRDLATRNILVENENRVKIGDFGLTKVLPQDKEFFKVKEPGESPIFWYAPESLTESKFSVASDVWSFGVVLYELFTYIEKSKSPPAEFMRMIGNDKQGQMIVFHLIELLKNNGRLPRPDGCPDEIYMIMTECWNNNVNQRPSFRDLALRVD

Caco2 Permeability Assay = type: in vitro ADME; conditions: human; for efflux ratio at 2 h, 5 μM: pH 7.4, Caco-2, 5 μM, read-out: Efflux Ratio (ER); for Papp A→B at 2 h, 5 μM: pH 7.4, Caco-2, apical to basolateral
Method: Preparation of Caco-2 Cells: 50 μL and 25 mL of cell culture medium are added to each well of a Transwell® insert and reservoir, respectively. Then, the HTS Transwell® plates are incubated at 37° C., 5% CO2 for 1 hour before cell seeding. Caco-2 cell cells are diluted to 6.86×10^5 cells/mL with culture medium, and 50 μL of cell suspension are dispensed into the filter well of the 96-well HTS Transwell® plate. Cells are cultivated for 14-18 days in a cell culture incubator at 37° C., 5% CO2, 95% relative humidity. Cell culture medium is replaced every other day, beginning no later than 24 hours after initial plating.
Preparation of Stock Solutions: 10 mM stock solutions of test compounds are prepared in DMSO. The stock solutions of positive controls are prepared in DMSO at the concentration of 10 mM. Digoxin and propranolol are used as control compounds in this assay.
Assessment of Cell Monolayer Integrity: Medium is removed from the reservoir and each Transwell® insert and is replaced with prewarmed fresh culture medium. Transepithelial electrical resistance (TEER) across the monolayer is measured using Millicell Epithelial Volt-Ohm measuring system (Millipore, USA). The Plate is returned to the incubator once the measurement is done. The TEER value is calculated according to the following equation: TEER measurement (ohms)×Area of membrane (cm^2)=TEER value (ohm⋅cm^2). A TEER value greater than 230 ohm⋅cm^2 indicates a well-qualified Caco-2 monolayer.
Assay Procedure: The Caco-2 plate is removed from the incubator and washed twice with pre-warmed HBSS (10 mM HEPES, pH 7.4), and then incubated at 37° C. for 30 minutes. The stock solutions of control compounds are diluted in DMSO to get 1 mM solutions and then diluted with HBSS (10 mM HEPES, pH 7.4) to get 5 μM working solutions. The stock solutions of the test compounds are diluted in DMSO to get 1 mM solutions and then diluted with HBSS (10 mM HEPES and 4% BSA, pH 7.4) to get 5 μM working solutions. The final concentration of DMSO in the incubation system is 0.5%. To determine the rate of drug transport in the apical to basolateral direction. 75 μL of 5 μM working solutions of test compounds are added to the Transwell® insert (apical compartment) and the wells in the receiver plate (basolateral compartment) are filled with 235 μL of HBSS (10 mM HEPES and 4% BSA, pH 7.4). To determine the rate of drug transport in the basolateral to apical direction, 235 μL of 5 μM working solutions of test compounds are added to the receiver plate wells (basolateral compartment) and then the Transwell® inserts (apical compartment) are filled with 75 μL of HBSS (10 mM HEPES and 4% BSA, pH 7.4). Time 0 samples are prepared by transferring 50 μL of 5 μM working solution to wells of the 96-deepwell plate, followed by the addition of 200 μL cold methanol containing appropriate internal standards (IS). The plates are incubated at 37° C. for 2 hours. At the end of the incubation, 50 μL samples from donor sides (apical compartment for Ap→*Bl flux, and basolateral compartment for Bl→Ap) and receiver sides (basolateral compartment for Ap→Bl flux, and apical compartment for Bl→Ap) are transferred to wells of a new 96-well plate, followed by the addition of 4 volume of cold acetonitrile or methanol containing appropriate internal standards (IS). Samples are vortexed for 5 minutes and then centrifuged at 3,220 g for 40 minutes. An aliquot of 100 μL of the supernatant is mixed with an appropriate volume of ultra-pure water before LC-MS/MS analysis. To determine the Lucifer Yellow leakage after 2 hour transport period, stock solution of Lucifer yellow is prepared in ultra-pure water and diluted with HBSS (10 mM HEPES, pH 7.4) to reach the final concentration of 100 μM. 100 μL of the Lucifer yellow solution is added to each Transwell® insert (apical compartment), followed by filling the wells in the receiver plate (basolateral compartment) with 300 μL of HBSS (10 mM HEPES, pH 7.4). […]

[2] = Hepatocyte Stability Assay, human hepatocytes; type: in vitro ADME; conditions: cryopreserved hepatocytes, read-out: Human Heps CLint
Method: 10 mM stock solutions of test compound and positive control are prepared in DMSO. Stock solutions are diluted to 100 μM by combining 198 μL of 50% acetonitrile/50% water and 2 μL of 10 mM stock solution. Verapamil is used as positive control in the assay. Vials of cryopreserved hepatocytes are thawed in a 37° C. water bath with gently shaking. The contents are poured into the 50 mL thawing medium conical tube. Vials are centrifuged at 100 g for 10 minutes at room temperature. Thawing medium is aspirated and hepatocytes are re-suspended with serum-free incubation medium to yield ˜1.5×10^6 cells/mL. Cell viability and density are counted using a Trypan Blue exclusion, and then cells are diluted with serum-free incubation medium to a working cell density of 0.5×10^6 viable cells/mL. A portion of the hepatocytes at 0.5×10^6 viable cells/mL are boiled for 5 min prior to adding to the plate as negative control to eliminate the enzymatic activity so that little or no substrate turnover should be observed. Aliquots of 198 μL hepatocytes are dispensed into each well of a 96-well non-coated plate. The plate is placed in the incubator for approximately 10 minutes. Aliquots of 2 μL of the 100 μM test compound and 2 μL positive control are added into respective wells of a non-coated 96-well plate to start the reaction. The final concentration of test compound is 1 μM. This assay is performed in duplicate. The plate is incubated in the incubator for the designed time points. 25 μL of contents are transferred and mixed with 6 volumes (150 μL) of cold acetonitrile with internal standard (100 nM alprazolam, 200 nM labetalol, 200 nM caffeine and 200 nM diclofenac) to terminate the reaction at time points of 0, 15, 30, 60, 90 and 120 minutes. Samples are centrifuged for 25 minutes at 3,220 g and aliquots of 150 μL of the supernatants are used for LC-MS/MS analysis.

Kd [1] [nM] | efflux ratio at 2 h, 5 μM (Caco2 Permeability Assay) | Papp A→B at 2 h, 5 μM (Caco2 Permeability Assay) [×10⁻⁶ cm/s] | CLint scaled at 1 μM [2] [mL/min/kg] | Compound
< 10 | 2 to 5 | 6 | ≤ 6 | Cn1cc(C(F)(F)F)cc(Nc2nc3ncc(Oc4ccnc(NC(=O)N5CCC5)c4)c(C#N)c3n2C)c1=O [Example I-7, N-(4-((7-cyano-1-methyl-2-((1-methyl-2-oxo-5-(trifluoromethyl)-1,2-dihydropyridin-3-yl)amino)-1H-imidazo[4,5-b]pyridin-6-yl)oxy)pyridin-2-yl)azetidine-1-carboxamide]
< 10 | 2 to 5 | 2 | 12 to 20 | Cn1c(Nc2cc3n(n2)CCC32CCC2)nc2ncc(Oc3ccnc(NC(=O)C4CC4)c3)c(C#N)c21 [Example I-122, N-(4-((7-cyano-2-((5′,6′-dihydrospiro[cyclobutane-1,4′-pyrrolo[1,2-b]pyrazol]-2′-yl)amino)-1-methyl-1H-imidazo[4,5-b]pyridin-6-yl)oxy)pyridin-2-yl)cyclopropanecarboxamide]
< 10 | ≤ 2 | 4 | 6 to 12 | CC(=O)Nc1cc(Oc2cnc3nc(Nc4cc5n(n4)CCCC54CC4)n(C)c3c2C#N)ccn1 [Example I-114, N-(4-((7-cyano-2-((6′,7′-dihydro-5′H-spiro[cyclopropane-1,4′-pyrazolo[1,5-a]pyridin]-2′-yl)amino)-1-methyl-1H-imidazo[4,5-b]pyridin-6-yl)oxy)pyridin-2-yl)acetamide]
< 10 | 10 to 30 | 0.4 | 12 to 20 | CCN1CCN(Cc2ccc(Nc3nc4ccc(Oc5ccnc(NC(C)=O)c5)cc4n3C)cc2C(F)(F)F)CC1 [Example R-1, reference compound]
< 10 | 2 to 5 | 4 | ≤ 6 | CO[C@H]1CCN(C(=O)Nc2cc(Oc3cnc4nc(Nc5cc(C(F)(F)F)cn(C)c5=O)n(C)c4c3C#N)ccn2)C1 [Example I-14, (S)-N-(4-((7-cyano-1-methyl-2-((1-methyl-2-oxo-5-(trifluoromethyl)-1,2-dihydropyridin-3-yl)amino)-1H-imidazo[4,5-b]pyridin-6-yl)oxy)pyridin-2-yl)-3-methoxypyrrolidine-1-carboxamide]
< 10 | 2 to 5 | 2 | 6 to 12 | Cn1cc(C(F)(F)F)cc(Nc2nc3ncc(Oc4ccnc(NC(=O)O[C@@H]5CCOC5)c4)c(C#N)c3n2C)c1=O [Example I-18, (R)-Tetrahydrofuran-3-yl(4-((7-cyano-1-methyl-2-((1-methyl-2-oxo-5-(trifluoromethyl)-1,2-dihydropyridin-3-yl)amino)-1H-imidazo[4,5-b]pyridin-6-yl)oxy)pyridin-2-yl)carbamate]
< 10 | 2 to 5 | 5 | ≤ 6 | CC(=O)Nc1cc(Oc2cnc3nc(Nc4cc5n(n4)CCOCC5(C)C)n(C)c3c2C#N)ccn1 [Example I-118, N-(4-((7-cyano-2-((4,4-dimethyl-4,5,7,8-tetrahydropyrazolo[1,5-d][1,4]oxazepin-2-yl)amino)-1-methyl-1H-imidazo[4,5-b]pyridin-6-yl)oxy)pyridin-2-yl)acetamide]

Compound | Kd [1] [nM] | efflux ratio at 2 h, 5 μM (Caco2 Permeability Assay) | Papp A→B at 2 h, 5 μM (Caco2 Permeability Assay) [×10⁻⁶ cm/s] | CLint scaled at 1 μM [2] [mL/min/kg]
COC(=O)Nc1cc(Oc2cnc3nc(Nc4cc(C(F)(F)F)cn(C)c4=O)n(C)c3c2C#N)ccn1 [Example I-3, Methyl (4-((7-cyano-1-methyl-2-((1-methyl-2-oxo-5-(trifluoromethyl)-1,2-dihydropyridin-3-yl)amino)-1H-imidazo[4,5-b]pyridin-6-yl)oxy)pyridin-2-yl)carbamate] | < 10 | ≤ 2 | 12 | ≤ 6
CN(C)C(=O)Nc1cc(Oc2cnc3nc(Nc4cc(C(F)(F)F)cn(C)c4=O)n(C)c3c2C#N)ccn1 [Example I-4, 3-(4-((7-cyano-1-methyl-2-((1-methyl-2-oxo-5-(trifluoromethyl)-1,2-dihydropyridin-3-yl)amino)-1H-imidazo[4,5-b]pyridin-6-yl)oxy)pyridin-2-yl)-1,1-dimethylurea] | < 10 | 2 to 5 | 7 | ≤ 6
COCC(=O)Nc1cc(Oc2cnc3nc(Nc4cc(C(F)(F)F)cn(C)c4=O)n(C)c3c2C#N)ccn1 [Example I-79, N-(4-((7-cyano-1-methyl-2-((1-methyl-2-oxo-5-(trifluoromethyl)-1,2-dihydropyridin-3-yl)amino)-1H-imidazo[4,5-b]pyridin-6-yl)oxy)pyridin-2-yl)-2-methoxyacetamide] | < 10 | ≤ 2 | 15 | 12 to 20
COCCOC(=O)Nc1cc(Oc2cnc3nc(Nc4cc5n(n4)CCC54CCC4)n(C)c3c2C#N)ccn1 [Example I-62, 2-methoxyethyl(4-((7-cyano-2-((5′,6′-dihydrospiro[cyclobutane-1,4′-pyrrolo[1,2-b]pyrazol]-2′-yl)amino)-1-methyl-1H-imidazo[4,5-b]pyridin-6-yl)oxy)pyridin-2-yl)carbamate] | < 10 | ≤ 2 | 5 | 6 to 12
CO[C@@H]1CCN(C(=O)Nc2cc(Oc3cnc4nc(Nc5cc6n(n5)CCC65CCC5)n(C)c4c3C#N)ccn2)C1 [Example I-60, (R)-N-(4-((7-cyano-2-((5′,6′-dihydrospiro[cyclobutane-1,4′-pyrrolo[1,2-b]pyrazol]-2′-yl)amino)-1-methyl-1H-imidazo[4,5-b]pyridin-6-yl)oxy)pyridin-2-yl)-3-methoxypyrrolidine-1-carboxamide] | < 10 | ≤ 2 | 6 | 6 to 12
